A word on the IC50: it is the concentration at which inhibition is half-maximal.

Drawing on the Kinase Knowledgebase extract (Sharma et al. 2016), this text covers IC50 for 53 molecules.

Assay [1] concerns the target PIK3CB (Human) (UniProt P42338). Briefly: Assessment of PIK3CB Kinase Activity.
The target of assay [2] is PIK3CD (Human) (UniProt O00329). Description: Assessment of PIK3CD Kinase Activity.
Assay [3] concerns the target PIK3CG (human) (UniProt P48736). Briefly: Assessment of PIK3CG Kinase Activity.

PIK3CD (Human), sequence (O00329 whole entry, looked up): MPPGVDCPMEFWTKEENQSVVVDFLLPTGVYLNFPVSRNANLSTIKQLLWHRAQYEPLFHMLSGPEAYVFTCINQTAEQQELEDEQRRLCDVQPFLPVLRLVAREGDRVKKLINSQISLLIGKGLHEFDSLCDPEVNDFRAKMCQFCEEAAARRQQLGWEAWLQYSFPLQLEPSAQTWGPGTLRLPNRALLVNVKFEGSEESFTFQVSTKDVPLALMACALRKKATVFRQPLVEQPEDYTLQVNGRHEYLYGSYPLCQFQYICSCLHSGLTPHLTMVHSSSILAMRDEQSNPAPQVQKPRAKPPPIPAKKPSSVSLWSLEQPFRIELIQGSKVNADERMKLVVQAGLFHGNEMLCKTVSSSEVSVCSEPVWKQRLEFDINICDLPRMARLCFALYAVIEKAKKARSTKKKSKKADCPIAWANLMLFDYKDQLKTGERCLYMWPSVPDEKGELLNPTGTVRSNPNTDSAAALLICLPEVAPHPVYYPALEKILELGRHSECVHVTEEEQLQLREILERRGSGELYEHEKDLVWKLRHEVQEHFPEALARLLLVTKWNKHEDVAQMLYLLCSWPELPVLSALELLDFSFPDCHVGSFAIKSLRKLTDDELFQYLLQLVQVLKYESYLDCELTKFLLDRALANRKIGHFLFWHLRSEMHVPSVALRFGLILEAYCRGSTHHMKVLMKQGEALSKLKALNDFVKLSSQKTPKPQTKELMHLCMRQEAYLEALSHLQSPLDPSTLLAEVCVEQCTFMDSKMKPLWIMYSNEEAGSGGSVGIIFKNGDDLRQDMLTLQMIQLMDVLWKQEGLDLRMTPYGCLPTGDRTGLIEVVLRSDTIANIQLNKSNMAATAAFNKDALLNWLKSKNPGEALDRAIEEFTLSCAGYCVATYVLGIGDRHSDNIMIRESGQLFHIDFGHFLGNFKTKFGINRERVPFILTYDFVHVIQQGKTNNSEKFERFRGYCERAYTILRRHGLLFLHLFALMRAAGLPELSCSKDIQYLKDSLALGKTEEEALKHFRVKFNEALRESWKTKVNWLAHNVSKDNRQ
PIK3CB (Human), sequence (P42338 whole entry, looked up): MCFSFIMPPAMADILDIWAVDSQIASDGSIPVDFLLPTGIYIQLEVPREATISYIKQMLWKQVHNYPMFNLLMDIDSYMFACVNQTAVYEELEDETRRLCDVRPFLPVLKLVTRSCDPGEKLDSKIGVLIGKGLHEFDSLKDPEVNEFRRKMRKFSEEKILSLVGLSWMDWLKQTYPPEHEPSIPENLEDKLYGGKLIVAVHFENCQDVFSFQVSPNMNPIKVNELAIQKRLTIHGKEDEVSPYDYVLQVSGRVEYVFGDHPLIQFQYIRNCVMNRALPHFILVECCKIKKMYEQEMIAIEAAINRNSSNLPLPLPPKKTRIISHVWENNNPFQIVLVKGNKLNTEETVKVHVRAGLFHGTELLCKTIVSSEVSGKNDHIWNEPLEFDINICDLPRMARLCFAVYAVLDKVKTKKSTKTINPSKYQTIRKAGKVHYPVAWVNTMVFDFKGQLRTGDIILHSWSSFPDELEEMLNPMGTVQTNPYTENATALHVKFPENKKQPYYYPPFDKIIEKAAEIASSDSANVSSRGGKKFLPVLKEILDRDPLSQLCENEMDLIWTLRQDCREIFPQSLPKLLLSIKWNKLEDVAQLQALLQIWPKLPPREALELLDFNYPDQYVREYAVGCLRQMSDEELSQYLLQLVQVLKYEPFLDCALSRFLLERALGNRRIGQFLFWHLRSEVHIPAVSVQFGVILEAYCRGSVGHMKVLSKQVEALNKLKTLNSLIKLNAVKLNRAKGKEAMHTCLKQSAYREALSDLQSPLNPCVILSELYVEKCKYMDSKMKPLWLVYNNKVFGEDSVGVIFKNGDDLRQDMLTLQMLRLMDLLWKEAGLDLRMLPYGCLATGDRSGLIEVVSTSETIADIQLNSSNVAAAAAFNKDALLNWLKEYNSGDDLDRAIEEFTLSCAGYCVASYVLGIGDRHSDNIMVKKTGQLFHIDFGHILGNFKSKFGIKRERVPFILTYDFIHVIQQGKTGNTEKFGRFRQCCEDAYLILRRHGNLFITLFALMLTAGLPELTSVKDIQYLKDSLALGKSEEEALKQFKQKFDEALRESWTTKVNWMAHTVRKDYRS
PIK3CG (human), sequence (P48736 whole entry, looked up): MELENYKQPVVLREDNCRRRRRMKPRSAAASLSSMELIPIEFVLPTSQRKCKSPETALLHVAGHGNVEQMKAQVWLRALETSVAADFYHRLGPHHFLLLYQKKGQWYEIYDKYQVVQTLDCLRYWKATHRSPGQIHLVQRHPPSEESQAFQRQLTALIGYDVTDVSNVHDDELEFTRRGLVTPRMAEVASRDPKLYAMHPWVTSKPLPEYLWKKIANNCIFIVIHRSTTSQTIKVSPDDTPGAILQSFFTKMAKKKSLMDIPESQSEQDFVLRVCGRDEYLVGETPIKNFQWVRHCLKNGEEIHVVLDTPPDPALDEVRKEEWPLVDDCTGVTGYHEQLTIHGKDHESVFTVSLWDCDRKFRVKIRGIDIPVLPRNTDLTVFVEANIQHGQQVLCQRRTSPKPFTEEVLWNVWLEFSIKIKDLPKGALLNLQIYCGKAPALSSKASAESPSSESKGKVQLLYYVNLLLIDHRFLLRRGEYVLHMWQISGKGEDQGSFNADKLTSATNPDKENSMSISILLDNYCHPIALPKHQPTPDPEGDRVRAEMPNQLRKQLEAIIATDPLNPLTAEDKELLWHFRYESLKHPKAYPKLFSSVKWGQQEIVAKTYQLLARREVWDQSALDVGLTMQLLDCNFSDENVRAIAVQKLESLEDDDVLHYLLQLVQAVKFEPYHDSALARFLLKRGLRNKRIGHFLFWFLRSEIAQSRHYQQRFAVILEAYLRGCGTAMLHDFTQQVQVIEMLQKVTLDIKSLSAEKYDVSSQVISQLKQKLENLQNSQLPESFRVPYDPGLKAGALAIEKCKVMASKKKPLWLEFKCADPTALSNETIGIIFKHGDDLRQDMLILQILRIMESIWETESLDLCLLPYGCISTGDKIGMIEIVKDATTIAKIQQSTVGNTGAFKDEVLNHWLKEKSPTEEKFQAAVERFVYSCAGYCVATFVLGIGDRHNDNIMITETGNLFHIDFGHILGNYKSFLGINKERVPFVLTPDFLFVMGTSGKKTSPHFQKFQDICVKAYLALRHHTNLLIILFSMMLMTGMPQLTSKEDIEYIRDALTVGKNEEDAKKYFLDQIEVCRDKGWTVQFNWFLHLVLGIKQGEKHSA

On to `C[C@H](Nc1ccnc2scnc12)c1cc2cccc(C(F)(F)F)c2c(=O)n1-c1ccccc1`, for which the IC50 in assay [1] was 0.1 to 1 µM; in assay [2], under 0.1 µM; in assay [3] it was under 0.1 µM.
As for `C[C@H](Nc1ccnc2cccnc12)c1cc2cccc(-c3cnn(C)c3)c2c(=O)n1-c1ccccc1`, the IC50 in assay [2] and in assay [3] was under 0.1 µM each time.
With `C[C@H](Nc1ccnc2ccnn12)c1cc2cccc(-c3cnn(C)c3)c2c(=O)n1-c1cccc(F)c1`, the IC50 is over 10 µM in assay [1], under 0.1 µM in assay [2] and 0.1 to 1 µM in assay [3].
For `C[C@H](Nc1nc(N)ncc1C#N)c1cc2cccc(C(F)(F)F)c2c(=O)n1-c1cccc(F)c1`, in that order: 0.1 to 1 µM, under 0.1 µM and under 0.1 µM.
For `Cc1nn(C)cc1-c1cccc2cc([C@H](C)Nc3ncnc4cccnc34)n(-c3ccccc3)c(=O)c12`, the IC50 in assay [1] is over 10 µM; in assay [2], under 0.1 µM; in assay [3] it was under 0.1 µM.
Consider `Cc1cc(-c2cccc3cc([C@H](C)Nc4ncnc5cccnc45)n(-c4ccccc4)c(=O)c23)cnc1C`, for which the IC50 in assay [1] is over 10 µM; in assay [2] it was under 0.1 µM; in assay [3], 0.1 to 1 µM.
In the case of `C[C@H](Nc1nc(N)nc2cccnc12)c1cc2cccc(-c3ccnnc3)c2c(=O)n1-c1cccc(F)c1`, the figures for the half-inhibitory concentration (IC50) in assay [1], in assay [2] and in assay [3] were over 10 µM, under 0.1 µM and under 0.1 µM, respectively.
Turning to `COc1ncc(-c2cccc3cc([C@H](C)Nc4ncnc5cccnc45)n(-c4cccc(F)c4)c(=O)c23)cn1`, the figures for the concentration for half-maximal inhibition (IC50) in assay [1], in assay [2] and in assay [3] were over 10 µM, under 0.1 µM and 0.1 to 1 µM, respectively.
As to `C[C@H](Nc1nc(N)nc2[nH]cnc12)c1cc2cccc(C(F)(F)F)c2c(=O)n1-c1cccc(F)c1`, the IC50 in assay [1] was 0.1 to 1 µM; in assay [2], under 0.1 µM; in assay [3] it was under 0.1 µM.
Regarding `C[C@H](Nc1ccnn2ccnc12)c1cc2cccc(C(F)(F)F)c2c(=O)n1-c1cccc(F)c1`, the concentration for half-maximal inhibition (IC50) in assay [2] and in assay [3] was under 0.1 µM throughout.
Regarding `C[C@H](Nc1ncnc2scnc12)c1cc2scc(C(F)(F)F)c2c(=O)n1-c1ccccc1`, the IC50 in assay [1] was 0.1 to 1 µM; in assay [2], under 0.1 µM; in assay [3] it was under 0.1 µM.
With `C[C@H](Nc1ncnc2cccnc12)c1cc2cccc(Cl)c2c(=O)n1-c1ccccc1`, the concentration for half-maximal inhibition (IC50) was 0.1 to 1 µM in assay [1], under 0.1 µM in assay [2] and under 0.1 µM in assay [3].
For the molecule `C[C@H](Nc1ccnn2ccnc12)c1cc2cccc(C(F)(F)F)c2c(=O)n1-c1ccccc1`, the half-inhibitory concentration (IC50) in assay [1] was 0.1 to 1 µM; in assay [2] it was under 0.1 µM; in assay [3] it was under 0.1 µM.
Take `C[C@H](Nc1ncnc2[nH]cc(F)c12)c1cc2cccc(C(F)(F)F)c2c(=O)n1-c1ccccc1`: the IC50 in assay [2] and in assay [3] was under 0.1 µM in each case.
For the molecule `C[C@H](Nc1ccnn2ccnc12)c1cc2cccc(-c3cnn(C)c3)c2c(=O)n1-c1cccc(F)c1`, the half-inhibitory concentration (IC50) in assay [1] was over 10 µM; in assay [2], under 0.1 µM; in assay [3], under 0.1 µM.
As to `C[C@H](Nc1ccnn2ccnc12)c1cc2cccc(Cl)c2c(=O)n1-c1cccc(F)c1`, the IC50 was 0.1 to 1 µM in assay [1], under 0.1 µM in assay [2] and under 0.1 µM in assay [3].
As for `C[C@H](Nc1nc(N)nc2cccnc12)c1cc2cccc(C(F)(F)F)c2c(=O)n1-c1ccccc1`, the values for the concentration for half-maximal inhibition (IC50) in assay [1], in assay [2] and in assay [3] were 0.1 to 1 µM, under 0.1 µM and under 0.1 µM, respectively.
In the case of `C[C@H](Nc1ncnc2cccnc12)c1cc2cc(F)ccc2c(=O)n1-c1ccccc1`, the half-maximal inhibitory concentration (IC50) was over 10 µM in assay [1] and 0.1 to 1 µM in assay [2].
As to `C[C@H](Nc1nc(N)nc2cccnc12)c1cc2cccc(-c3ccnnc3)c2c(=O)n1-c1ccccc1`, the concentration for half-maximal inhibition (IC50) in assay [2] and in assay [3] was under 0.1 µM throughout.
`C[C@H](Nc1ccnc2ccnn12)c1cc2cccc(Cl)c2c(=O)n1-c1ccccc1`: the results for the IC50 in assay [1], in assay [2] and in assay [3] were 0.1 to 1 µM, under 0.1 µM and under 0.1 µM, respectively.
`C[C@H](Nc1ncnc2cccnc12)c1cc2c(F)cccc2c(=O)n1-c1ccccc1`: the half-inhibitory concentration (IC50) in assay [2] and in assay [3] was under 0.1 µM throughout.
With `C[C@H](Nc1nc(N)ncc1C#N)c1cc2cccc(C(F)(F)F)c2c(=O)n1-c1ccccc1`, the values for the IC50 in assay [1], in assay [2] and in assay [3] were 0.1 to 1 µM, under 0.1 µM and under 0.1 µM, respectively.
Consider `C[C@H](Nc1nc(N)nc2scnc12)c1cc2cccc(C(F)(F)F)c2c(=O)n1-c1ccccc1`, for which the IC50 in assay [2] and in assay [3] was under 0.1 µM throughout.
As for `COc1ncc(-c2cccc3cc([C@H](C)Nc4ccnn5ccnc45)n(-c4ccccc4)c(=O)c23)cn1`, the half-inhibitory concentration (IC50) is over 10 µM in assay [1], under 0.1 µM in assay [2] and 0.1 to 1 µM in assay [3].
For `C[C@H](Nc1ncnc2cccnc12)c1cc2scc(Cl)c2c(=O)n1-c1ccccc1`, in that order: 0.1 to 1 µM, under 0.1 µM and under 0.1 µM.
As for `C[C@H](Nc1ccnc2ccnn12)c1cc2cccc(Cl)c2c(=O)n1-c1cccc(F)c1`, the IC50 in assay [2] and in assay [3] was under 0.1 µM in each case.
As for `C[C@H](Nc1ncnc2cccnc12)c1cc2cccc(C(F)(F)F)c2c(=O)n1-c1ccccc1`, the IC50 was 0.1 to 1 µM in assay [1], under 0.1 µM in assay [2] and under 0.1 µM in assay [3].
With `C[C@H](Nc1ncnn2ccnc12)c1cc2cccc(Cl)c2c(=O)n1-c1cccc(F)c1`, the half-inhibitory concentration (IC50) in assay [2] and in assay [3] was under 0.1 µM in each case.
Regarding `C[C@H](Nc1ncnc2ccnn12)c1cc2cccc(Cl)c2c(=O)n1-c1ccccc1`, the IC50 in assay [1] was 0.1 to 1 µM; in assay [2], under 0.1 µM; in assay [3], under 0.1 µM.
As to `C[C@H](Nc1nc(N)nc2cccnc12)c1cc2cccc(-c3cncnc3)c2c(=O)n1-c1ccccc1`, the 50% inhibitory concentration (IC50) in assay [2] and in assay [3] was under 0.1 µM in each case.
Regarding `C[C@H](Nc1ccnn2ccnc12)c1cc2cccc(-c3cnn(C)c3)c2c(=O)n1-c1ccccc1`, the IC50 in assay [2] and in assay [3] was under 0.1 µM in each case.
Consider `CNc1nc(N[C@@H](C)c2cc3cccc(Cl)c3c(=O)n2-c2ccccc2)c2ncccc2n1`, for which the half-maximal inhibitory concentration (IC50) in assay [2] and in assay [3] was under 0.1 µM throughout.
As to `C[C@H](Nc1ccnc2ccnn12)c1cc2scc(Cl)c2c(=O)n1-c1ccccc1`, the concentration for half-maximal inhibition (IC50) in assay [1] is 0.1 to 1 µM; in assay [2], under 0.1 µM; in assay [3], under 0.1 µM.
Regarding `C[C@H](Nc1ccnc2cccnc12)c1cc2cccc(Cl)c2c(=O)n1-c1cccc(F)c1`, the IC50 in assay [2] and in assay [3] was under 0.1 µM throughout.
For the molecule `C[C@H](Nc1ncnn2ccnc12)c1cc2cccc(C(F)(F)F)c2c(=O)n1-c1ccccc1`, the IC50 was 0.1 to 1 µM in assay [1], under 0.1 µM in assay [2] and under 0.1 µM in assay [3].
On to `C[C@H](Nc1nc(N)nc2cccnc12)c1cc2cccc(-c3cnn(C)c3)c2c(=O)n1-c1ccccc1`, for which the IC50 in assay [1] is over 10 µM; in assay [2], under 0.1 µM; in assay [3], under 0.1 µM.
Turning to `C[C@H](Nc1ccnc2ccnn12)c1cc2cccc(-c3cnn(C)c3)c2c(=O)n1C1CC1`, the IC50 in assay [2] is under 0.1 µM.
Consider `C[C@H](Nc1ccnc2ccnn12)c1cc2cccc(C(F)(F)F)c2c(=O)n1-c1ccccc1`, for which the figures for the IC50 in assay [1], in assay [2] and in assay [3] were 0.1 to 1 µM, under 0.1 µM and under 0.1 µM, respectively.
In the case of `C[C@H](Nc1nc(N)nc2cccnc12)c1cc2cccc(-c3cnn(C)c3)c2c(=O)n1-c1cccc(F)c1`, the IC50 in assay [1] was over 10 µM; in assay [2] it was under 0.1 µM; in assay [3] it was under 0.1 µM.
Consider `C[C@H](Nc1ncnc2cccnc12)c1cc2cccc(-c3cnn(C)c3)c2c(=O)n1C1CC1`, for which the IC50 in assay [2] and in assay [3] was under 0.1 µM throughout.
For the molecule `C[C@H](Nc1ncnc2cccnc12)c1cc2cccc(-c3cnn(C)c3)c2c(=O)n1-c1cccc(F)c1`, the results for the IC50 in assay [1], in assay [2] and in assay [3] were over 10 µM, under 0.1 µM and under 0.1 µM, respectively.
In the case of `C[C@H](Nc1ncnc2cccnc12)c1cc2ccc(F)cc2c(=O)n1-c1ccccc1`, the IC50 in assay [2] and in assay [3] was under 0.1 µM each time.
For the molecule `C[C@H](Nc1ncnc2[nH]cc(C(N)=O)c12)c1cc2cccc(C(F)(F)F)c2c(=O)n1-c1ccccc1`, the IC50 in assay [1] was 0.1 to 1 µM; in assay [2], under 0.1 µM; in assay [3], under 0.1 µM.
Consider `C[C@H](Nc1ccnc2ccnn12)c1cc2cccc(-c3cnn(C)c3)c2c(=O)n1-c1ccccc1`, for which the IC50 in assay [2] and in assay [3] was under 0.1 µM in each case.
With `C[C@H](Nc1ccnn2ccnc12)c1cc2scc(Cl)c2c(=O)n1-c1ccccc1`, the figures for the IC50 in assay [1], in assay [2] and in assay [3] were 0.1 to 1 µM, under 0.1 µM and under 0.1 µM, respectively.
On to `C[C@H](Nc1nc(N)nc2cccnc12)c1nc2cccc(-c3ccnnc3)c2c(=O)n1-c1ccccc1`, for which the IC50 in assay [1] was over 10 µM; in assay [2], under 0.1 µM; in assay [3], under 0.1 µM.
As to `C[C@H](Nc1ncnn2ccnc12)c1cc2cccc(Cl)c2c(=O)n1-c1ccccc1`, the 50% inhibitory concentration (IC50) is 0.1 to 1 µM in assay [1], under 0.1 µM in assay [2] and under 0.1 µM in assay [3].
Regarding `C[C@H](Nc1ccnn2ccnc12)c1cc2cccc(Cl)c2c(=O)n1C1CC1`, the IC50 was 0.1 to 1 µM in assay [1], under 0.1 µM in assay [2] and 0.1 to 1 µM in assay [3].
`C[C@H](Nc1ccnc2cccnc12)c1cc2cccc(Cl)c2c(=O)n1-c1ccccc1`: the figures for the IC50 in assay [1], in assay [2] and in assay [3] were 0.1 to 1 µM, under 0.1 µM and under 0.1 µM, respectively.
For `Cc1ncc(-c2cccc3cc([C@H](C)Nc4nc(N)nc5cccnc45)n(-c4cccc(F)c4)c(=O)c23)cn1`, the half-maximal inhibitory concentration (IC50) in assay [1] was over 10 µM; in assay [2], under 0.1 µM; in assay [3] it was under 0.1 µM.
In the case of `Cc1cccc2cc([C@H](C)Nc3ncnc4cccnc34)n(-c3cccc(F)c3)c(=O)c12`, the IC50 in assay [2] and in assay [3] was under 0.1 µM throughout.
As for `C[C@H](Nc1ncnc2cccnc12)c1cc2cccc(C(F)(F)F)c2c(=O)n1-c1cccc(F)c1`, the IC50 in assay [2] and in assay [3] was under 0.1 µM throughout.
For the molecule `C[C@H](Nc1ccnn2ccnc12)c1cc2cccc(-c3cnn(C)c3)c2c(=O)n1C1CC1`, the half-inhibitory concentration (IC50) in assay [2] was under 0.1 µM; in assay [3] it was 0.1 to 1 µM.
